# Results published in ChEMBL document CHEMBL1158978, “Antimicrobial N-methylpyridinium salts related to the xestamines from the Caribbean sponge Calyx podatypa” (1991).
# Where a name gives a salt, the structure may show the parent alone.
# Assays:
# Assay type in all cases: functional
# Conditions in all cases: read-out: IZ
# Staphylococcus aureus = test: Antimicrobial activity against Staphylococcus aureus at 5 ug/ml by standard disk assay
# Bacillus subtilis = test: Antimicrobial activity against Bacillus subtilis at 5 ug/ml by standard disk assay
# Candida albicans = test: Antimicrobial activity against Candida albicans at 10 ug/ml by standard disk assay
smiles,measurement,setting,value
CON(C)CCCCCCCCCC/C=C\C#CCCCCc1ccc[n+](C)c1 [XESTAMINE F IODIDE SALT],zone of inhibition at 5 µg/mL,Staphylococcus aureus,9 mm
same,zone of inhibition at 5 µg/mL,Bacillus subtilis,8 mm
same,zone of inhibition at 10 µg/mL,Candida albicans,10 mm
